In ChEMBL document CHEMBL2407088, “Frenolicins C-G, pyranonaphthoquinones from Streptomyces sp. RM-4-15” (J Nat Prod, 2013):

Test system: A549
Experiment: Cytotoxicity against human A549 cells after 2 days by resazurin reduction assay
Conditions: A549, 48 h

| Compound | IC50 |
| --- | --- |
| CCC[C@H]1O[C@H](CC(=O)O)C[C@]2(SC[C@H](NC(C)=O)C(=O)O)C(=O)c3cccc(O)c3C(=O)[C@@]12O | > 80 µM |
| CCC[C@H]1O[C@H](CC(=O)O)C[C@@]2(O)C(=O)c3cccc(O)c3C(=O)[C@@]12O | > 80 µM |
| CCC[C@H]1O[C@H](CC(=O)O)C[C@]2(O)C(=O)c3cccc(O)c3C(=O)[C@@]12O | > 80 µM |
| CCC[C@H]1O[C@H](CC(=O)O)C[C@]23O[C@]12C(=O)c1c(O)cccc1[C@@H]3O | > 80 µM |
| CCC[C@H]1O[C@H](CC(=O)OC)[C@H](O)C2=C1C(=O)c1c(O)cccc1C2=O | 0.35 µM |
| CCC[C@H]1O[C@H](CC(=O)O)C[C@@H]2C(=O)c3cccc(O)c3C(=O)[C@]21O | > 80 µM |
| CCC[C@H]1O[C@H](CC(=O)O)CC2=C1C(=O)c1c(O)cccc1C2=O [DEOXYFRENOLICIN] | 1.07 µM |
| CCC[C@H]1O[C@@H]2CC(=O)O[C@@H]2C2=C1C(=O)c1c(O)cccc1C2=O [FRENOLICIN B] | 0.28 µM |
| CCC[C@H]1O[C@H](CC(=O)O)C[C@]23O[C@]12C(=O)c1c(O)cccc1C3=O [FRENOLICIN] | 5.77 µM |
